Legend:
[1] = Energy expenditure after ingestion in human subjects; format: in vivo
Method: Human subjects were administered placebo, a cooling flavor, capsaicin, or cinnamaldehyde. The energy expenditure was measured over the eighty minutes following ingestion.

[2] = biological target: TRPM8 (Homo sapiens, UniProt Q7Z2W7); details: background statement; cited from earlier work
[3] = Postprandial fat oxidation after ingestion in human subjects; format: in vivo
Method: The postprandial fat oxidation was measured over the 90 minutes following ingestion of the various compounds.

[4] = Chin temperature after ingestion in human subjects (sympathetic autonomic activity); format: in vivo; details: for AUC difference in chin temperature relative to placebo: Z10, comparison vs Pl (placebo)
Method: The chin temperature of the subjects was measured over the eighty minutes following ingestion of the various compounds. […] The increased sympathetic activity identified by measuring the facial temperature (increased blood flow on the chin) might explain the increased energy expenditure measured by indirect calorimetry.

[5] = Nose temperature after ingestion in human subjects; format: in vivo; details: fifteen minutes following ingestion, FIG. 7
Method: The nose temperature of the subjects was analyzed over the fifteen minutes following ingestion of the various compounds.

[6] = biological target: T1, hTRPA1 expressed in CHO cells (Homo sapiens, UniProt O75762); assay: In vitro activity of hTRPA1 expressed in CHO cells (intracellular calcium, fluorescent dye); format: cell-based; parameters: in vitro activity of hTRPA1, positive control efficacy: dose or concentration left out as unconfirmed
T1 construct: expressed in transfected cells; host or cells: CHO cells
T1 sequence (O75762 whole entry): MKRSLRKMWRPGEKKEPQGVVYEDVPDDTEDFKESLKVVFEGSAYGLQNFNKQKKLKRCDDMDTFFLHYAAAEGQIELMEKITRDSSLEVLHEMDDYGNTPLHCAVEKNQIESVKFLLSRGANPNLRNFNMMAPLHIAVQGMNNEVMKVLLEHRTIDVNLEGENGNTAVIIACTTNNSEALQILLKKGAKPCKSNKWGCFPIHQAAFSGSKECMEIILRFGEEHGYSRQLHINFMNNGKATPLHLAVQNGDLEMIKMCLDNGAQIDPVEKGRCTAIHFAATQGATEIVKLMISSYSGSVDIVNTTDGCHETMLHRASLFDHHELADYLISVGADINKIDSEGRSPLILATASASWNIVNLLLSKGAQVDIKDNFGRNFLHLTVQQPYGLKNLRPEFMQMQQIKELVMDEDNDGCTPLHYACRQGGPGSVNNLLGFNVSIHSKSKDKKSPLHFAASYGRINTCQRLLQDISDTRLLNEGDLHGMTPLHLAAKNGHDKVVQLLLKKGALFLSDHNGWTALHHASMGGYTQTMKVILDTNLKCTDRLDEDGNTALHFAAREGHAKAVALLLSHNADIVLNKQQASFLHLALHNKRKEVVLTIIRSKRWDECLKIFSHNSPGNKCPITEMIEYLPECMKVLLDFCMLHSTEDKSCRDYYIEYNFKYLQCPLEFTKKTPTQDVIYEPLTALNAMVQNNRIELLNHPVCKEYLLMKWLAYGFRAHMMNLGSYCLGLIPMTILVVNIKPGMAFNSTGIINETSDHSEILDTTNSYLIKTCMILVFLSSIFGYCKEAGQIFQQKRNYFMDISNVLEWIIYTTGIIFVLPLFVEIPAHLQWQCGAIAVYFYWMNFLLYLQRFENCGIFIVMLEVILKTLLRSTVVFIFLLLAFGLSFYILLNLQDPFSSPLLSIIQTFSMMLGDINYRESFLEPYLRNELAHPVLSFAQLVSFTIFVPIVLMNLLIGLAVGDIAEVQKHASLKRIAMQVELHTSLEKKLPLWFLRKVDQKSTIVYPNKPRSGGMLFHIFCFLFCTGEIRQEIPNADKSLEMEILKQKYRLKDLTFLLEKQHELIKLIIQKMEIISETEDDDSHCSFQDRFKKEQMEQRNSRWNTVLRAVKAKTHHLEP

[7] = biological target: TRPV1 (Homo sapiens, UniProt Q8NER1); details: background statement; cited from earlier work
TRPV1, sequence (Q8NER1 whole entry, species assumed): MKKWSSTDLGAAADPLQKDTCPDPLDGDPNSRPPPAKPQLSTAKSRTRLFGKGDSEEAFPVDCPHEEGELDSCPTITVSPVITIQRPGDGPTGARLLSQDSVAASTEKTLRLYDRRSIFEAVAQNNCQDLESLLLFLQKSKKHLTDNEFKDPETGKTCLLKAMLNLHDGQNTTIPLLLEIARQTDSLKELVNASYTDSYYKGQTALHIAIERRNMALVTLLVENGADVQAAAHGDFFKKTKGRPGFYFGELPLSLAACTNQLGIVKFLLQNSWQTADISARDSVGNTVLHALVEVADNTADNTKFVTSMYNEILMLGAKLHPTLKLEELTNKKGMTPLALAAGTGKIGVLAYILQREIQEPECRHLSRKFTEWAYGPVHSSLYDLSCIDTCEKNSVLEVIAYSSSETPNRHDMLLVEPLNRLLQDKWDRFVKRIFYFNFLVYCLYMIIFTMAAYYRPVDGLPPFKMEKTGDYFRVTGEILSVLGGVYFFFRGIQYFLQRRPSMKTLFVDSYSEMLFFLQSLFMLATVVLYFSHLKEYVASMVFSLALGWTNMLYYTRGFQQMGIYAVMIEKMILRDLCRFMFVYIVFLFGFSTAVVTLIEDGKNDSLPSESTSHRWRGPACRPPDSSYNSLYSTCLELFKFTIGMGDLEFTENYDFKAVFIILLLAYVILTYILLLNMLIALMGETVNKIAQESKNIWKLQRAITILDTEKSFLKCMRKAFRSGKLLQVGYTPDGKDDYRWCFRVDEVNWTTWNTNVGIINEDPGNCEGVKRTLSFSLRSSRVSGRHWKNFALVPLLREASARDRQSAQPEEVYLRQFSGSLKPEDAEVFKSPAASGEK

[8] = biological target: TRPA1 (Homo sapiens, UniProt O75762); details: background statement; read-out: EC50 for activation of TRPA1; cited from earlier work
TRPA1, sequence (O75762 whole entry, species assumed): as the sequence (O75762 whole entry) above

[9] = Comparative taste testing in human subjects; format: in vivo; details: 4.8 ppm capsaicin or 350 ppm cinnamaldehyde, FIG. 9
Method: Human subjects were administered a composition comprising 4.8 ppm capsaicin or 350 ppm cinnamaldehyde. […] 87.9% of the participants judged capsaicin intense to very intense, compared to only 20.5% for cinnamaldehyde. To achieve a similar effect on fat oxidation of capsaicin and cinnamaldehyde, the dose of capsaicin is about 1.5 times less than the maximum that can be used as a flavor (7 ppm according to Fenaroli's Handbook; Burdock, 2010), and the dose of cinnamaldehyde is about 17.5 times less than the maximum that can be used as a flavor (6191.0 ppm according to Fenaroli's Handbook; Burdock, 2010).

[10] = flavoring level of cinnamaldehyde judged significantly less intense than capsaicin

TRPM8, sequence (Q7Z2W7 whole entry, species assumed): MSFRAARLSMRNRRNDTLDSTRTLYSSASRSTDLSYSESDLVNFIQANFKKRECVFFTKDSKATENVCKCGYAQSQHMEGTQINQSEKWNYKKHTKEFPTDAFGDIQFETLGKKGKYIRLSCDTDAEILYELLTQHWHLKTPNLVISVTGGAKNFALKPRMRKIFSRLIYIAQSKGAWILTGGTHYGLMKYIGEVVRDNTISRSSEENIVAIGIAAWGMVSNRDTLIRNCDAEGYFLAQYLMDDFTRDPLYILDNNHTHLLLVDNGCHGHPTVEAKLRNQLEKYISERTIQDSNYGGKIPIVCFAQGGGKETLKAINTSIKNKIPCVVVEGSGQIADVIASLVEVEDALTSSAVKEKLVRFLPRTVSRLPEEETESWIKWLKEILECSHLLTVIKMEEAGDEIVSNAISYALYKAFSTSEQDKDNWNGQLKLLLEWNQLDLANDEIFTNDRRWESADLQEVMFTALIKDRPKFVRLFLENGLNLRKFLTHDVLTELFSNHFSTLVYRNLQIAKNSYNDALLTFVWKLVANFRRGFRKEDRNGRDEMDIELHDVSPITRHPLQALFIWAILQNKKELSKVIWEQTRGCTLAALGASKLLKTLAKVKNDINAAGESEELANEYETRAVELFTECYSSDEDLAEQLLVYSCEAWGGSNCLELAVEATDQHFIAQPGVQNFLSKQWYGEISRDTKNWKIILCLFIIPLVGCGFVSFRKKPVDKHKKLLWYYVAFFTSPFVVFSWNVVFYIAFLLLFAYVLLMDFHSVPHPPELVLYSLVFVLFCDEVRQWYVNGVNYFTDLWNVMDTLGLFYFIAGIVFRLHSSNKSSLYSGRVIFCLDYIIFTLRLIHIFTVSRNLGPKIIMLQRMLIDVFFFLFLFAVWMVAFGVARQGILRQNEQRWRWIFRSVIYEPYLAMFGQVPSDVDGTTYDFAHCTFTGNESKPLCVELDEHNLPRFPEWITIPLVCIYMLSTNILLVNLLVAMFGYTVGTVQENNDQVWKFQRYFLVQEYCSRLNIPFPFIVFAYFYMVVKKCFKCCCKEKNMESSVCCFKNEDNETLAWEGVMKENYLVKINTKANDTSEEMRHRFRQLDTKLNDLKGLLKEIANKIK

SMILES	impact on energy expenditure compared to capsaicin [1, 10]	energy expenditure compared to placebo ([1]; human subjects, over the eighty minutes following ingestion, FIGS. 3 and 4)	activation of TRPM8 [2]	effect on fat oxidation compared to capsaicin [3, 10]	postprandial fat oxidation compared to placebo ([3]; human subjects, over the 90 minutes following ingestion, FIGS. 5 and 6)	impact on sympathetic nervous system activity compared to capsaicin [4, 10]	AUC difference in chin temperature relative to placebo ([4]; human subjects)	chin temperature relative to baseline ([4]; human subjects, over the eighty minutes following ingestion, FIG. 8)	nose temperature [5]	in vitro activity of hTRPA1, positive control efficacy ([6]; according to a dose-response curve)	activation of TRPV1 [7]	EC50 [8]	zinc concentration required for synergy with cinnamaldehyde on TRPA1 ([6]; in vitro)	participants who judged the taste intense to very intense [9]
O=CC=Cc1ccccc1 [cinnamaldehyde]	significantly higher impact	increased	not	equivalent effect	maintained at higher levels	significantly higher impact	34.072	increases chin temperature for a prolonged time	increase nose temperatures	maximum efficacy	not	~10 µM	–	–
[Zn] [zinc]	–	–	–	–	–	–	–	–	–	–	–	–	< 1 µM	–
COc1cc(CNC(=O)CCCC/C=C/C(C)C)ccc1O [capsaicin, reference compound]	–	–	–	–	–	–	25.26	–	increase nose temperatures	–	–	–	–	87.9%

Reference: patent US20220133782A1, “METHODS AND COMPOSITIONS FOR USING CINNAMALDEHYDE AND ZINC FOR WEIGHT MANAGEMENT” (SOCIÉTÉ DES PRODUITS NESTLÉ S.A., priority 2014, published 2022)
